Source: the NIST ThermoML archive (doi:10.1016/j.jct.2010.08.010)
Numbers after ± are expanded uncertainties.

Conditions: Liquid, Buoyancy - hydrostatic balance with magnetic suspension - one sinker

Cc1ccccc1 [toluene]
Conditions	mass density [kg/m3]
233.15 K, 101.25 kPa	922.207 ± 0.21
233.15 K, 1055.6 kPa	922.722 ± 0.21
233.15 K, 1861.3 kPa	923.156 ± 0.21
233.15 K, 3871.1 kPa	924.223 ± 0.21
233.15 K, 5873.9 kPa	925.287 ± 0.22
233.15 K, 8031.1 kPa	926.415 ± 0.22
233.15 K, 9906.5 kPa	927.392 ± 0.22
233.15 K, 11973 kPa	928.445 ± 0.22
233.15 K, 13947 kPa	929.451 ± 0.22
233.15 K, 15971 kPa	930.461 ± 0.22
233.15 K, 18029 kPa	931.487 ± 0.22
233.15 K, 19921 kPa	932.422 ± 0.22
233.15 K, 22000 kPa	933.432 ± 0.22
233.15 K, 24029 kPa	934.411 ± 0.22
233.15 K, 25833 kPa	935.279 ± 0.22
233.15 K, 27876 kPa	936.25 ± 0.22
233.15 K, 29776 kPa	937.146 ± 0.22
253.15 K, 102.01 kPa	903.705 ± 0.21
253.15 K, 1102.6 kPa	904.316 ± 0.21
253.15 K, 1837.1 kPa	904.762 ± 0.21
253.15 K, 3915.8 kPa	906 ± 0.21
253.15 K, 6024.3 kPa	907.237 ± 0.21
253.15 K, 7905.8 kPa	908.333 ± 0.21
253.15 K, 9884.5 kPa	909.467 ± 0.21
253.15 K, 11995 kPa	910.665 ± 0.21
253.15 K, 13975 kPa	911.777 ± 0.21
253.15 K, 15951 kPa	912.877 ± 0.21
253.15 K, 17978 kPa	913.989 ± 0.21
253.15 K, 20022 kPa	915.098 ± 0.21
253.15 K, 21921 kPa	916.119 ± 0.21
253.15 K, 24088 kPa	917.274 ± 0.21
253.15 K, 25990 kPa	918.275 ± 0.21
253.15 K, 27827 kPa	919.23 ± 0.21
253.15 K, 29746 kPa	920.223 ± 0.21
273.15 K, 97.87 kPa	885.25 ± 0.21
273.15 K, 1027.8 kPa	885.881 ± 0.21
273.15 K, 1996.9 kPa	886.534 ± 0.21
273.15 K, 4081.7 kPa	887.926 ± 0.21
273.15 K, 5913.4 kPa	889.129 ± 0.21
273.15 K, 8004.2 kPa	890.482 ± 0.21
273.15 K, 9932.4 kPa	891.714 ± 0.21
273.15 K, 11880 kPa	892.948 ± 0.21
273.15 K, 13888 kPa	894.195 ± 0.21
273.15 K, 16098 kPa	895.56 ± 0.21
273.15 K, 18099 kPa	896.771 ± 0.21
273.15 K, 19969 kPa	897.897 ± 0.21
273.15 K, 21860 kPa	899.011 ± 0.21
273.15 K, 23914 kPa	900.215 ± 0.21
273.15 K, 25980 kPa	901.41 ± 0.21
273.15 K, 28070 kPa	902.607 ± 0.21
273.15 K, 30123 kPa	903.766 ± 0.21
293.15 K, 99.87 kPa	866.733 ± 0.2
293.15 K, 101.56 kPa	866.808 ± 0.2
293.15 K, 1103.1 kPa	867.572 ± 0.2
293.15 K, 1127.8 kPa	867.518 ± 0.2
293.15 K, 1967 kPa	868.206 ± 0.2
293.15 K, 2003.6 kPa	868.257 ± 0.2
293.15 K, 2021.4 kPa	868.196 ± 0.2
293.15 K, 3955.9 kPa	869.643 ± 0.2
293.15 K, 4003.3 kPa	869.731 ± 0.2
293.15 K, 4004.5 kPa	869.753 ± 0.2
293.15 K, 5995 kPa	871.216 ± 0.2
293.15 K, 6031.6 kPa	871.224 ± 0.2
293.15 K, 6107.1 kPa	871.23 ± 0.2
293.15 K, 8032.8 kPa	872.623 ± 0.2
293.15 K, 8164.1 kPa	872.766 ± 0.2
293.15 K, 8180.3 kPa	872.799 ± 0.2
293.15 K, 9984.8 kPa	874.014 ± 0.2
293.15 K, 10008 kPa	874.081 ± 0.2
293.15 K, 10026 kPa	874.114 ± 0.2
293.15 K, 12005 kPa	875.479 ± 0.2
293.15 K, 12114 kPa	875.512 ± 0.2
293.15 K, 12190 kPa	875.631 ± 0.2
293.15 K, 13874 kPa	876.778 ± 0.2
293.15 K, 13947 kPa	876.779 ± 0.2
293.15 K, 14049 kPa	876.921 ± 0.2
293.15 K, 15849 kPa	878.081 ± 0.2
293.15 K, 16015 kPa	878.24 ± 0.2
293.15 K, 16153 kPa	878.35 ± 0.2
293.15 K, 17969 kPa	879.506 ± 0.2
293.15 K, 18022 kPa	879.584 ± 0.2
293.15 K, 18058 kPa	879.633 ± 0.2
293.15 K, 19969 kPa	880.88 ± 0.2
293.15 K, 19990 kPa	880.848 ± 0.2
293.15 K, 20012 kPa	880.925 ± 0.2
293.15 K, 21348 kPa	881.783 ± 0.2
293.15 K, 21972 kPa	882.207 ± 0.2
293.15 K, 22236 kPa	882.319 ± 0.2
293.15 K, 23457 kPa	883.155 ± 0.2
293.15 K, 23981 kPa	883.441 ± 0.2
293.15 K, 24105 kPa	883.586 ± 0.2
293.15 K, 25005 kPa	884.147 ± 0.2
293.15 K, 25908 kPa	884.671 ± 0.2
293.15 K, 26066 kPa	884.837 ± 0.2
293.15 K, 27839 kPa	885.935 ± 0.21
293.15 K, 27990 kPa	885.976 ± 0.21
293.15 K, 28091 kPa	886.104 ± 0.21
293.15 K, 28372 kPa	886.271 ± 0.21
293.15 K, 29914 kPa	887.239 ± 0.21
293.15 K, 30011 kPa	887.242 ± 0.21
313.15 K, 100.25 kPa	848.035 ± 0.2
313.15 K, 1103.1 kPa	848.903 ± 0.2
313.15 K, 2030.6 kPa	849.693 ± 0.2
313.15 K, 3897.3 kPa	851.277 ± 0.2
313.15 K, 6141.8 kPa	853.137 ± 0.2
313.15 K, 7925.2 kPa	854.59 ± 0.2
313.15 K, 9859 kPa	856.142 ± 0.2
313.15 K, 11935 kPa	857.774 ± 0.2
313.15 K, 13950 kPa	859.327 ± 0.2
313.15 K, 16069 kPa	860.941 ± 0.2
313.15 K, 17874 kPa	862.289 ± 0.2
313.15 K, 19838 kPa	863.738 ± 0.2
313.15 K, 22114 kPa	865.383 ± 0.2
313.15 K, 24097 kPa	866.799 ± 0.2
313.15 K, 25913 kPa	868.068 ± 0.2
313.15 K, 28005 kPa	869.523 ± 0.2
313.15 K, 29966 kPa	870.863 ± 0.2
333.15 K, 98.96 kPa	829.055 ± 0.19
333.15 K, 1101 kPa	830.042 ± 0.19
333.15 K, 2134.3 kPa	831.05 ± 0.19
333.15 K, 4003.8 kPa	832.841 ± 0.19
333.15 K, 6105.7 kPa	834.814 ± 0.19
333.15 K, 8005 kPa	836.556 ± 0.2
